Columns and labels:
BPV-1 [1] = test: BPV-1 focus-forming assay, virus preincubated with compound (Table C); format: cell-based, bovine papilloma virus; details: C127 cell line
Protocol: In a similar study using the BPV-1 focus forming assay, the effect of the cellulose sulfate and dextran sulfate on BPV was tested. In this study, cellulose sulfate tested was as described above. Dextran sulfate used was from Dextran Products Limited (Lot DSM-122) prepared using dextan of average Mr of about 500,000 (based on viscosity) and is estimated to have a final average Mr greater than about 500,000 and may be about 1 to 1.1 million.
Microbicidal activity of the compounds was tested using the well-characterized BPV-1 focus-forming assay (Dvoretzky, I., R. Shober, S. K. Chattopadhyay, and D. R. Lowy. 1980. A quantitative in vitro focus assay for bovine papilloma virus. Virology 103:369-375), with modifications for microbicide testing (Hermonat, P. L., (1992) supra; Howett, M. K., et al. (1999) supra. The terms inhibiting or microbicidal activity when used are intended to refer broadly to microbe infection and/or microbe inactivating effect.
Aliquots of BPV-1 containing approximately 100-200 focus-forming units were preincubated with dilutions of compounds for 10 min at 37° C. prior to addition to cultures of mouse C127 cells. Cultures of C127 cells were set up in T25 tissue culture flasks (Corning, N.Y.), containing 3×10^5 cells per flask. Virus-compound mixtures in a total of 50 μl were then added to flasks in 1 ml of media, and an additional 3 ml of media added after 24 hrs culture. Media was changed every 3-4 days for a period of 2 weeks. Foci were enumerated following staining of the monolayer with crystal violet and counting stained foci microscopically. Each concentration of compound was tested in duplicate, and the mean±SD of foci number for the preincubation virus-drug concentration for each compound is shown below as Table C.
Clones were derived from the parental C127 cell line because of the consistent failure of BPV-1 to induce foci following several cell passages of the uncloned parental cell line. One clone, labeled C127-D10, which produced foci upon BPV-1 infection, was chosen for a repeat testing of the compounds. When this clone was tested for microbicidal activity, less compound was required to achieve high reduction in BPV-1-induced foci when compared to the uncloned parental-C127 cells.

BPV-1 [2] = test: BPV-1 focus-forming assay, cells pre-incubated with compound and washed before virus (Table D); format: cell-based, bovine papilloma virus; details: for Average ± standard deviation (foci/well): C127-D10 cells, washed before virus
Protocol: Microbicidal activity of compounds was also tested by pre-incubation of cells with compounds followed by addition of virus to compound-coated C127 cells. In these experiments, dilutions of compounds were added to cultures of C127 cells, incubated for 1 hr at 37° C., washed 3 times with media to remove unbound compound, prior to addition of approximately 100 focus-forming units of BPV-1. The cultures were incubated for an additional hour, washed three times to remove unbound virus, then the incubation was continued for two weeks with media changes every 3-4 days and foci counted as described above.
Pre-incubation of C127-D10 cells with compounds prior to addition of BPV-1 was tested to determine whether the microbicidal effects of CS and DS extended to a blockage of virus interaction with cell surfaces. In these experiments, titrations of compounds were added to cell cultures followed by washing away unbound reagent prior to addition of virus. After a one-hour incubation with virus, unbound virus was removed by washing and the cultures monitored for foci after two weeks.

HPV-11 = test: RT-PCR ELISA for transient infection of human A431 cells, HPV-11; format: cell-based, human papilloma virus; details: with virus (HPV-11)
Protocol: (§1) Cellulose sulfate and dextran sulfate were each prepared as a 2 mg/ml solution in 0.9% NaCl and tested for microbicidal activity using the in vitro HPV transient infection assay originally described by Smith and colleagues (Smith, L. H., C. Foster, M. E. Hitchcock, and R. Isseroff. 1993. In vitro HPV-11 infection of human foreskin. J. Invest. Dermatol. 101:292-295) with some modifications (Ludmerer, S. W., W. L. McClements, X. M. Wang, J. C. Ling, K. U. Jansen, and N. D. Christensen. 2000. HPV11 mutant virus-like parties elicit immune responses that neutralize virus and delineate a novel neutralizing domain. Virology 266:237-245). An ELISA-based read-out of Optical Density (OD) values using alkaline phosphatase cleavage of the substrate p-nitrophenyl phosphate was also used to measure HPV infection as described below.
(§2) A modification of the RT-PCR assay that incorporates an ELISA-based read-out (Boehringer-Mannheim) was also included to assess microbicidal activity. Replicate cell cultures of A431 cells were infected with an aliquot of infectious HPV virions as described above. After 4 days of culture, cells were harvested and RNA extracted. RNA was subjected to RT using downstream anti-sense (reverse) primers for HPV-11 or HPV-40 and β-actin (as a control/housekeeping cellular transcript) to initiate cDNA synthesis. The cDNA was processed through 2 sets of 30 cycles of PCR amplification using nested primers: the second set of cycles used digoxygenin (DIG)-dUTP to label the PCR products with DIG. DIG-labeled PCR products were denatured then renatured together with a biotinylated oligonucleotide specific for the targeted PCR product. Biotinylated products were detected in ELISA with plates coated with streptavidin (to capture the biotinylated target PCR product) then anti-DIG antibody and substrate. Labeled PCR products were added directly to ELISA plates, or titrated at 10-fold dilutions in duplicate for each cell culture for each virus dilution.

HPV-40 = test: RT-PCR ELISA for transient infection of human A431 cells, HPV-40; format: cell-based, human papilloma virus; details: with virus (HPV-40)
Protocol: as §1
The RT-PCR assay to detect HPV-40 infection was designed similarly for the detection of HPV-11 infection as described above.
as §2
The microbicidal activity was assessed either as the detection of ethidium stained PCR products or as an ELISA-based read-out as described above. […] An initial experiment was conducted to test the specificity of the ELISA-based RT-PCR assay using HPV-11 and HPV-40 infection of A431 cells (Table E).

[3] = tested on: human papilloma virus-like particles (VLP's); details: Joyce et al. 1999; cited from earlier work
papillomaviruses = details: literature; cited from earlier work
[4] = 100 μg/ml at viral pretreatment

Substance | inhibition of papilloma virus infectivity (BPV-1 [1]; 100 μg/ml) | inhibition of papilloma virus infectivity (BPV-1 [1]; 1 mg/ml) | Average ± standard deviation (foci/well) (BPV-1 [2]; 10 μg/ml) | reduction of BPV-1-induced foci (BPV-1 [2]; 10 μg/ml, cells pre-treated, washed) | Average ± standard deviation (foci/well) (BPV-1 [2]; 100 μg/ml) | Average ± standard deviation (foci/well) (BPV-1 [2]; 1,000 μg/ml) | Average ± standard deviation (foci/well) (BPV-1 [2]; 10,000 μg/ml) | Mean (SD) of O.D. reading for RT-PCR ELISA, HPV-11 probe (HPV-11; 10 μg/ml at viral pretreatment) | Mean (SD) of O.D. reading for RT-PCR ELISA, HPV-11 probe (HPV-11; [4]) | Mean (SD) of O.D. reading for RT-PCR ELISA, HPV-40 probe (HPV-40; 10 μg/ml at viral pretreatment) | Mean (SD) of O.D. reading for RT-PCR ELISA, HPV-40 probe (HPV-40; [4]) | Mean (SD) of O.D. reading for RT-PCR ELISA, HPV-40 probe (HPV-40; 1000 μg/ml at viral pretreatment) | binding of VLP's to HaCaT cells [3] | microbicidal activity against papillomaviruses (papillomaviruses)
Dextran sulfate | moderate inhibition | very high inhibition | 31 ± 16.9 foci/well | substantial reduction in foci | 15 ± 4.6 foci/well | 4 ± 2.6 foci/well | 0 foci/well | 0.023 (0.000) O.D. | 0.035 (0.000) O.D. | 0.042 (0.007) O.D. | 0.375 (0.073) O.D. | 0.006 (0.007) O.D. | inhibited | 
heparin [reference compound] |  |  |  |  |  |  |  |  |  |  |  |  | inhibited | 
nonoxynol-9 |  |  |  |  |  |  |  |  |  |  |  |  |  | ineffective
